The values below are quoted from earlier work in patent publication US7575866B2, “Ligand/binding partner bio-labeling systems” (priority 2003, dated 2009).

For one data set, the target named is T1, Mycobacterium avium DHFR (Mycobacterium avium, UniProt O30463).
T1 sequence (O30463 1-181): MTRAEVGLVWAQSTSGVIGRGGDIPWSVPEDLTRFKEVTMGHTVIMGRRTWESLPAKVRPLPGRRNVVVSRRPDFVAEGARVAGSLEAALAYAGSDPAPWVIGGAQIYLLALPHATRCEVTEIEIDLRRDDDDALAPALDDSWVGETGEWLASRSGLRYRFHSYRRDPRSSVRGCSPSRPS

`CN(Cc1cnc2nc(N)nc(N)c2n1)c1ccc(C(=O)N[C@@H](CCC(=O)O)C(=O)O)cc1` [MTX, Methotrexate]: the “concentration at which toxicity observed” value in the data set with human leukocytes was 2 µM. For the same compound, the “extracellular concentration at which DNA damage has been observed” value in the data set with human cells is 10 µM.
For “2,4-diamino-5-[(2-methoxy-4-carboxybutyloxy)benzyl]pyrimidine”, the “selective binding to Mycobacterium avium DHFR” value on Mycobacterium avium DHFR was “selectively bind”.
Regarding `CCCCc1c(CN(C)c2ccc(C(=O)N[C@@H](CCC(=O)O)C(=O)O)cc2)cnc2nc(N)nc(N)c12` [5-butyl-5-deazamethotrexate], the “inhibitory effect on DHFR lowered relative to MTX” value with DHFR is 17 fold.
